The experiment has as its target T1, F508delCFTR cell surface expression in CFBE41o-F508delCFTR-HRP cells (Homo sapiens, UniProt P13569, DEL508-508).
T1 construct: fused on or other part: Horseradish peroxidase (HRP) reporter inserted in the fourth exofacial (extracellular) loop of CFTR; expression is doxycycline-inducible
Nature of the experiment: Cell Surface Expression-Horse Radish Peroxidase (CSE-HRP) Assay. The class given is cell-based. As to conditions: for EC50: CFBE41o-F508delCFTR-HRP cells, 18-24 hours at 33° C., 8-point curve, highest concentration 20 μM; for Maximum % activity (%): maximum at any tested concentration, normalized to on-plate positive control (3 μM). In a few lines: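 Correctors incubated 18-24 h at 33 °C on doxycycline-induced (0.5 μg/mL, 72 h) CFBE41o-F508delCFTR-HRP cells, 3-fold series from 20 μM. After DPBS washes, luminol luminescence read; activity expressed relative to DMSO and a 3 μM positive control, EC50 fitted from triplicate plates.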

Usually EC50 stands for the midpoint of the concentration-response curve. The low end stands for an effect from little substance, the high end for a need for much substance.

T1 sequence (P13569 with tags, fused parts or gaps DEL508-508 limits assumed): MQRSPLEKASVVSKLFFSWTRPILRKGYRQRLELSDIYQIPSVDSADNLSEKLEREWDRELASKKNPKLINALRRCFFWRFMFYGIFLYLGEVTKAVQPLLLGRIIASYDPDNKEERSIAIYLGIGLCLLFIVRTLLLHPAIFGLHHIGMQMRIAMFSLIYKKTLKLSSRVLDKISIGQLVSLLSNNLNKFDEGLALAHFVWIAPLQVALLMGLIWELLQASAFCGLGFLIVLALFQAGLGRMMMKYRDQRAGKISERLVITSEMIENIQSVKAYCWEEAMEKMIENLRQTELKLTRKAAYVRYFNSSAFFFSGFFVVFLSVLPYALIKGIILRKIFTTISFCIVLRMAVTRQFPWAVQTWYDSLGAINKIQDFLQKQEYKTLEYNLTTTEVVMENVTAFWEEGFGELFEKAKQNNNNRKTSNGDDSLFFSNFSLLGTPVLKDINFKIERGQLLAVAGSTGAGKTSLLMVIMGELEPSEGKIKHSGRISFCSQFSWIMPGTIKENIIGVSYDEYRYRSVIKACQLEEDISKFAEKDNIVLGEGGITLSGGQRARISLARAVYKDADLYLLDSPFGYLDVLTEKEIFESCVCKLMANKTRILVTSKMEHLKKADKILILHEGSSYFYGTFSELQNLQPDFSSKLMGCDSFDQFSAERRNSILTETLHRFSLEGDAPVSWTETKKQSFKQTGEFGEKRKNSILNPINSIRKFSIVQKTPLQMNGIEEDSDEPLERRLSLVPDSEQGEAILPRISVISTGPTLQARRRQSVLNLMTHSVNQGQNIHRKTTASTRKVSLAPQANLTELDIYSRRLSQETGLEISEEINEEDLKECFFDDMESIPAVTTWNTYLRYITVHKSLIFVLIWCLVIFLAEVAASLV
T1 sequence (P13569 919-1480 limits assumed, stated change not applied): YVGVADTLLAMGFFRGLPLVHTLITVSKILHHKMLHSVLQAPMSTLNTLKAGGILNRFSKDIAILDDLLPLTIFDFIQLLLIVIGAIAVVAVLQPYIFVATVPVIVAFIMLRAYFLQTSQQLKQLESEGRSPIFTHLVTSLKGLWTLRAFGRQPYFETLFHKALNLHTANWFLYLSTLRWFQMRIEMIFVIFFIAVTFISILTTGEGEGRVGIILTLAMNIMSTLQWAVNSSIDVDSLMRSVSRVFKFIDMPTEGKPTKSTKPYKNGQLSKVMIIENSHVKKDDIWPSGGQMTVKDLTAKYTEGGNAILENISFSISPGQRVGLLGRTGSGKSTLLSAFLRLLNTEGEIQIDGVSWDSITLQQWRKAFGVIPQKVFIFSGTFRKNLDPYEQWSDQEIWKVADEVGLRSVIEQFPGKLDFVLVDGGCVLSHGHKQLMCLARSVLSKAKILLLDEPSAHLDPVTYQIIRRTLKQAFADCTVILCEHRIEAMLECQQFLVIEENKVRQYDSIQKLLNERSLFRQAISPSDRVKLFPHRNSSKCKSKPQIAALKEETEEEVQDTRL

Turning to `COc1ccc2c(c1)O[C@@H](c1ccc(C(=O)N3CCOCC3CO)cn1)C[C@H]2NC(=O)[C@@]1(C)COc2cc3c(cc21)OC(F)(F)O3` (stereo partly drawn) [Example 240, (7R)-2,2-difluoro-N-[(2R,4R)-2-{5-[3-(hydroxymethyl)morpholine-4-carbonyl]pyridin-2-yl}-7-methoxy-3,4-dihydro-2H-1-benzopyran-4-yl]-7-methyl-6,7-dihydro-2H-furo[2,3-f][1,3]benzodioxole-7-carboxamide], the EC50 was determined as 60 nM and the “Maximum % activity (%)” value was found to be 132%.

Take `COc1ccc2c(c1)O[C@@H](c1ccc(C(=O)NCC(C)O)cn1)C[C@H]2NC(=O)[C@@]1(C)COc2cc3c(cc21)OC(F)(F)O3` (stereo partly drawn) [Example 241, 6-[(2R,4R)-4-{[(7R)-2,2-difluoro-7-methyl-6,7-dihydro-2H-furo[2,3-f][1,3]benzodioxole-7-carbonyl]amino}-7-methoxy-3,4-dihydro-2H-1-benzopyran-2-yl]-N-(2-hydroxypropyl)pyridine-3-carboxamide]: the EC50 is 40 nM and the “Maximum % activity (%)” value was found to be 110%.

`COc1ccc2c(c1)O[C@@H](c1ccc(C(=O)NC(C)CO)cn1)C[C@H]2NC(=O)[C@@]1(C)COc2cc3c(cc21)OC(F)(F)O3` (stereo partly drawn) [Example 242, 6-[(2R,4R)-4-{[(7R)-2,2-difluoro-7-methyl-6,7-dihydro-2H-furo[2,3-f][1,3]benzodioxole-7-carbonyl]amino}-7-methoxy-3,4-dihydro-2H-1-benzopyran-2-yl]-N-(1-hydroxypropan-2-yl)pyridine-3-carboxamide]: the EC50 was found to be 40 nM and the “Maximum % activity (%)” value is 116%.

With `COc1ccc2c(c1)O[C@@H](c1ccc(C(=O)NCCO)cn1)C[C@H]2NC(=O)[C@@]1(C)COc2cc3c(cc21)OC(F)(F)O3` [Example 244, 6-[(2R,4R)-4-{[(7R)-2,2-difluoro-7-methyl-6,7-dihydro-2H-furo[2,3-f][1,3]benzodioxole-7-carbonyl]amino}-7-methoxy-3,4-dihydro-2H-1-benzopyran-2-yl]-N-(2-hydroxyethyl)pyridine-3-carboxamide], the EC50 was found to be 30 nM and the “Maximum % activity (%)” value worked out at 114%.

Consider `COc1ccc2c(c1)O[C@@H](c1ccc(C(=O)NC[C@H]3C[C@H](O)C3)cn1)C[C@H]2NC(=O)[C@@]1(C)COc2cc3c(cc21)OC(F)(F)O3` [Example 245, 6-[(2R,4R)-4-{[(7R)-2,2-difluoro-7-methyl-6,7-dihydro-2H-furo[2,3-f][1,3]benzodioxole-7-carbonyl]amino}-7-methoxy-3,4-dihydro-2H-1-benzopyran-2-yl]-N-[(trans-3-hydroxycyclobutyl)methyl]pyridine-3-carboxamide], for which the EC50 stood at 50 nM and the “Maximum % activity (%)” value is 107%.

In the case of `COCC(CO)NC(=O)c1ccc([C@H]2C[C@@H](NC(=O)[C@@]3(C)COc4cc5c(cc43)OC(F)(F)O5)c3ccc(OC)cc3O2)nc1` (stereo partly drawn) [Example 246, 6-[(2R,4R)-4-{[(7R)-2,2-difluoro-7-methyl-6,7-dihydro-2H-furo[2,3-f][1,3]benzodioxole-7-carbonyl]amino}-7-methoxy-3,4-dihydro-2H-1-benzopyran-2-yl]-N-(1-hydroxy-3-methoxypropan-2-yl)pyridine-3-carboxamide], a half-maximal effect (EC50) was put at 80 nM and the “Maximum % activity (%)” value was 125%.

Regarding `CC1(C)OC[C@H](CN2CCC([C@H]3C[C@@H](NC(=O)[C@@]4(C)COc5cc6c(cc54)OC(F)(F)O6)c4ccc(OC(F)(F)F)cc4O3)CC2)O1` [Example 247, (7R)—N-[(2R,4R)-2-(1-{[(4S)-2,2-dimethyl-1,3-dioxolan-4-yl]methyl}piperidin-4-yl)-7-(trifluoromethoxy)-3,4-dihydro-2H-1-benzopyran-4-yl]-2,2-difluoro-7-methyl-6,7-dihydro-2H-furo[2,3-f][1,3]benzodioxole-7-carboxamide], the EC50 was 1180 nM and the “Maximum % activity (%)” value was found to be 181%.

The values are drawn from patent publication US9840513B2 (AbbVie S.à.r.l., priority 2015, dated 2017).
